The structures appear in SMILES notation. “Also recorded” adds a separate entry of the source.

Experiment [1] relates to H1 human ES cells. Description: Neuronal differentiation of human ES cells, differentiation protocol 1. It counts as cell-based. As to conditions: vs DMSO. The procedure:
Two different protocols were used to induce neuronal differentiation of human ES cells. In the first protocol, human ES cells were mechanically dissociated into small aggregates and plated on laminin/polyornithine coated six-well plates. Cells were cultured 2 weeks in human SR medium (DMEM F-12 supplemented with 15% knockout serum (Gibco), non-essential amino acids, penicillin and streptomycin), followed by 4 weeks in N2 medium. Compounds were added throughout these first 6 weeks. Subsequently, cells were mechanically dissociated and replated on polyornithine/laminin-coated 6 well plates. Throughout the text, this first differentiation protocol will be referred to as “differentiation protocol 1”. The second differentiation protocol was derived from previously described differentiation conditions (Nat et al., 2007). In the second differentiation protocol, undifferentiated human ES cells were mechanically dissociated into small aggregates and cultured in suspension on low-attachment six-well plates. For the first 4 days, they were cultured in neuronal induction medium (DMEM F-12, N2 supplement, penicillin and streptomycin), which was changed to simple neuronal proliferation medium (DMEM F-12, N2 supplement, 20 ng/ml bFGF, penicillin and streptomycin) for 2 additional days. […]
Immunostaining quantification. Immunostaining and nuclear staining quantifications were performed using the MetaXpress software (Molecular devices). Total neurite outgrowth was quantified using the neurite outgrowth analysis module, and total cell numbers were quantified with the count nuclei analysis module.
Phenazopyridine enhances neuronal differentiation of human ES cells. […] After 8 weeks of differentiation, the DMSO-treated cell population was highly heterogeneous as assessed by immunostaining for β3-tubulin, nestin, vimentin and GFAP. […] To quantify neuronal differentiation, the inventors chose to measure total neurite outgrowth and divided it by total cell number at different time points in three independent experiments (FIG. 7A).

Experiment [2] relates to H1 human ES cells. Description: Neuronal differentiation of human ES cells, differentiation protocol 2 (clinical grade protocol). It counts as cell-based. The procedure: Undifferentiated human H1 ES cells were cultured on irradiated mouse embryonic fibroblasts (MEF). To carry out neuronal differentiation, ES cells were mechanically dissociated into small aggregates (50-300 cells) and cultured in suspension on low-attachment six-well plates. For the first 4 days, the cells were cultured in neuronal induction medium (DMEM F-12 (Gibco), N2 supplement (Gibco), penicillin and streptomycin (Gibco), phenazopyridine 3:M). Then the medium was changed to simple neuronal proliferation medium (DMEM F-12, N2 supplement, 20 ng/ml human recombinant bFGF, penicillin and streptomycin, phenazopyridine 3:M) for 2 additional days. Subsequently, 15-20 6-day old cell aggregates were plated on polyornithine/laminin-coated six-well plates and maintained in simple neuronal proliferation medium for 7 days. Cells were then mechanically dissociated and replated in N2 medium (DMEM high glucose (Gibco), 10 ng/ml human recombinant bFGF (Gibco), N2 supplement (Gibco), penicillin and streptomycin (Gibco)) at a density of 20,000 cells per cm^2 on polyornithine/laminin-coated six-well plate. Cells were passaged when they reached 80-90% confluency, and were maintained in the same culture conditions for 2 additional weeks. Stock phenazopyridine (Microsource Discovery Inc.) was prepared by diluting phenazopyridine powder in DMSO (Sigma-Aldrich) at a concentration of 6 mM. The stock solution was diluted at 1:2000 in cell culture media to obtain a final concentration of 3:M Each of the components of the neuronal induction medium, the simple neuronal proliferation medium and the N2 medium can be replaced with clinical grade equivalents. Therefore, the foregoing procedure of carrying out neuronal differentiation is referred to herein as the “clinical grade protocol.”
The effects of phenazopyridine on ES cell differentiation were investigated using the clinical grade-compatible protocol. The first step involved generation of spheres of cells grown in suspension for 6 days, followed by replating on polyornithine/laminin coated plastic. One week later, cells were passaged at 2×10^4 cells/cm^2 on polyornithine/laminin coated plastic, and during the following two weeks cells were passaged when they reached 80-90% confluency. Cells were treated with either DMSO (1:2000) or with phenazopyridine (PAP) at 3:M with equivalent final DMSO concentration throughout the 4 week period.
Two different protocols were used to induce neuronal differentiation of human ES cells. In the first protocol, human ES cells were mechanically dissociated into small aggregates and plated on laminin/polyornithine coated six-well plates. Cells were cultured 2 weeks in human SR medium (DMEM F-12 supplemented with 15% knockout serum (Gibco), non-essential amino acids, penicillin and streptomycin), followed by 4 weeks in N2 medium. Compounds were added throughout these first 6 weeks. Subsequently, cells were mechanically dissociated and replated on polyornithine/laminin-coated 6 well plates. Throughout the text, this first differentiation protocol will be referred to as “differentiation protocol 1”. The second differentiation protocol was derived from previously described differentiation conditions (Nat et al., 2007). In the second differentiation protocol, undifferentiated human ES cells were mechanically dissociated into small aggregates and cultured in suspension on low-attachment six-well plates. For the first 4 days, they were cultured in neuronal induction medium (DMEM F-12, N2 supplement, penicillin and streptomycin), which was changed to simple neuronal proliferation medium (DMEM F-12, N2 supplement, 20 ng/ml bFGF, penicillin and streptomycin) for 2 additional days. Subsequently, aggregates were plated on polyornithine/laminin-coated six-well plates and maintained in simple neuronal proliferation medium for 7 days. Cells were then mechanically dissociated and replated in N2 medium at a density of 2×10^4 cells per cm^2 for two additional weeks.

The mark [3] stands for this setting: 3 μM, four weeks of differentiation.

For `Nc1ccc(/N=N/c2ccccc2)c(N)n1` [phenazopyridine], the “total neurite outgrowth divided by total cell number (efficiency of differentiation into mature neurons)” value in the experiment on H1 human ES cells [1] (3 μM for first 6 weeks, three independent experiments, p=0.045) is given as “always superior to DMSO-treated cells”. In addition, the “homogeneity of cell population by immunostaining (β3-tubulin, nestin, vimentin, GFAP)” value in the experiment with H1 human ES cells [1] (after 8 weeks of differentiation) was “more homogeneous, most cells being positive for nestin, β3-tubulin, and vimentin, with occasional neuronal networks”. In addition, the “formation of neuronal networks” value in the experiment with H1 human ES cells [1] (after 10 weeks) is “further neuronal networks formed”. Also, the “dissociation after mechanical passaging” value in the experiment with H1 human ES cells [2] (3 μM vs DMSO) was “could easily be dissociated into single cells”. In addition, the “percentage of living single cells by trypan blue exclusion (survival of dissociated cells)” value in the experiment with H1 human ES cells [2] (3 μM vs DMSO, at passaging at different time points) is given as “promotes survival of dissociated cells”. In the experiment with H1 human ES cells [2] (3 μM vs DMSO, phase contrast), the “sphere morphology after one week of differentiation” value is reported as “No apparent difference; also recorded: morphologically indistinct” and the “sphere morphology at two weeks of differentiation” value was “developed into big areas of monolayer surrounding the plated spheres; also recorded: developed bigger areas of monolayer at their periphery”. Further, the “neuronal marker phenotype by immunostaining” value in the experiment with H1 human ES cells [2] (3 μM, after four weeks of differentiation) was “Virtually all cells were nestin, Sox 1 and vimentin-positive, expressed β3-tubulin and Pax6 at low levels, and were negative for musashi”. Further, in the experiment on H1 human ES cells [2] (setting [3]), the “cells nestin-positive with low levels of β3-tubulin (early neuronal precursors)” value is listed as “approximately 98%”; the “non-neural cells (nestin and β3-tubulin negative) or differentiated neurons (β3-tubulin only)” value is “no non-neural cells or differentiated neurons were observed”. Moreover, the “mitotic figures and PCNA-positive cells in monolayer area” value in the experiment on H1 human ES cells [2] (3 μM, two weeks, vs DMSO) is “many mitotic figures and PCNA-positive cells”.

The values above are taken from patent publication US8609413B2, “Neurons, astrocytes and oligodendrocytes differentiated from a mammalian pluripotent or neural stem cells exposed to a pyridine deriviative” (Research Development Foundation, priority 2007, dated 2013).
